In brackets after ≈: the same amount, converted by molar mass.
Experiments:
Assay type in all cases: functional
Penicillium cyclopium [1] = experiment: Antifungal activity Penicillium verrucosum var. cyclopium by microdilution method
Erwinia amylovora [2] = experiment: Antibacterial activity against Erwinia amylovora by microdilution method
[3] = system: Pectobacterium carotovorum; experiment: Antibacterial activity against Erwinia carotovora by microdilution method
Aspergillus ochraceus [4] = experiment: Fungicidal activity Aspergillus ochraceus
Bacillus subtilis [5] = experiment: Antibacterial activity against Bacillus subtilis by microdilution method
Trichoderma viride [6] = experiment: Antifungal activity Trichoderma viride by microdilution method
Pseudomonas fluorescens [7] = experiment: Antibacterial activity against Pseudomonas fluorescens by microdilution method
Aspergillus fumigatus [8] = experiment: Antifungal activity Aspergillus fumigatus by microdilution method
Bacillus subtilis [9] = experiment: Bactericidal activity against Bacillus subtilis
Talaromyces funiculosus [10] = experiment: Fungicidal activity Penicillium funiculosum
Aspergillus fumigatus [11] = experiment: Fungicidal activity Aspergillus fumigatus
Aspergillus niger [12] = experiment: Antifungal activity Aspergillus niger by microdilution method
[13] = system: Pectobacterium carotovorum; experiment: Bactericidal activity against Erwinia carotovora
Xanthomonas campestris [14] = experiment: Bactericidal activity against Xanthomonas campestris
Aspergillus ochraceus [15] = experiment: Antifungal activity Aspergillus ochraceus by microdilution method
Pseudomonas fluorescens [16] = experiment: Bactericidal activity against Pseudomonas fluorescens
Penicillium ochrochloron [17] = experiment: Fungicidal activity Penicillium ochrochloron
Trichoderma viride [18] = experiment: Fungicidal activity Trichoderma viride
Xanthomonas campestris [19] = experiment: Antibacterial activity against Xanthomonas campestris by microdilution method
Talaromyces funiculosus [20] = experiment: Antifungal activity Penicillium funiculosum by microdilution method
Penicillium cyclopium [21] = experiment: Fungicidal activity Penicillium verrucosum var. cyclopium
Penicillium ochrochloron [22] = experiment: Antifungal activity Penicillium ochrochloron by microdilution method
Erwinia amylovora [23] = experiment: Bactericidal activity against Erwinia amylovora
Aspergillus versicolor [24] = experiment: Antifungal activity Aspergillus versicolor by microdilution method
Aspergillus niger [25] = experiment: Fungicidal activity Aspergillus niger
Aspergillus versicolor [26] = experiment: Fungicidal activity Aspergillus versicolor

SMILES	MIC (Penicillium cyclopium [1])	MIC (Erwinia amylovora [2])	MIC [3]	MIC (Bacillus subtilis [5])	MIC (Trichoderma viride [6])	MIC (Pseudomonas fluorescens [7])	MIC (Aspergillus fumigatus [8])	MIC (Aspergillus niger [12])	MIC (Aspergillus ochraceus [15])	MIC (Xanthomonas campestris [19])	MIC (Talaromyces funiculosus [20])	MFC (Aspergillus ochraceus [4])	MBC (Bacillus subtilis [9])	MFC (Talaromyces funiculosus [10])	MFC (Aspergillus fumigatus [11])	MBC [13]	MBC (Xanthomonas campestris [14])	MBC (Pseudomonas fluorescens [16])	MFC (Penicillium ochrochloron [17])	MFC (Trichoderma viride [18])	further results
O=C(/C(=C/c1ccccc1)n1cncn1)c1ccc(Cl)cc1Cl	220 µM (≈ 75.7 µg/mL)	2.9 µM (≈ 0.998 µg/mL)	2.9 µM (≈ 0.998 µg/mL)	2.9 µM (≈ 0.998 µg/mL)	50 µM (≈ 17.2 µg/mL)	2.9 µM (≈ 0.998 µg/mL)	160 µM (≈ 55.1 µg/mL)	160 µM (≈ 55.1 µg/mL)	100 µM (≈ 34.4 µg/mL)	2.9 µM (≈ 0.998 µg/mL)	220 µM (≈ 75.7 µg/mL)	220 µM (≈ 75.7 µg/mL)	5.8 µM (≈ 2 µg/mL)	440 µM (≈ 151 µg/mL)	220 µM (≈ 75.7 µg/mL)	5.8 µM (≈ 2 µg/mL)	2.9 µM (≈ 0.998 µg/mL)	2.9 µM (≈ 0.998 µg/mL)	440 µM (≈ 151 µg/mL)	100 µM (≈ 34.4 µg/mL)	MFC (Penicillium cyclopium [21]): 440 µM (≈ 151 µg/mL); MIC (Penicillium ochrochloron [22]): 160 µM (≈ 55.1 µg/mL); MBC (Erwinia amylovora [23]): 2.9 µM (≈ 0.998 µg/mL); MIC (Aspergillus versicolor [24]): 80 µM (≈ 27.5 µg/mL); MFC (Aspergillus niger [25]): 220 µM (≈ 75.7 µg/mL); MFC (Aspergillus versicolor [26]): 220 µM (≈ 75.7 µg/mL)
CN(C)c1ccc(/C=C(/C(=O)c2ccc(-c3ccccc3)cc2)n2cncn2)cc1	250 µM (≈ 98.6 µg/mL)	2.5 µM (≈ 0.986 µg/mL)	2.5 µM (≈ 0.986 µg/mL)	2.5 µM (≈ 0.986 µg/mL)	90 µM (≈ 35.5 µg/mL)	2.5 µM (≈ 0.986 µg/mL)	250 µM (≈ 98.6 µg/mL)	250 µM (≈ 98.6 µg/mL)	130 µM (≈ 51.3 µg/mL)	5.1 µM (≈ 2.01 µg/mL)	180 µM (≈ 71 µg/mL)	250 µM (≈ 98.6 µg/mL)	5.1 µM (≈ 2.01 µg/mL)	250 µM (≈ 98.6 µg/mL)	510 µM (≈ 201 µg/mL)	5.1 µM (≈ 2.01 µg/mL)	5.1 µM (≈ 2.01 µg/mL)	2.5 µM (≈ 0.986 µg/mL)	250 µM (≈ 98.6 µg/mL)	130 µM (≈ 51.3 µg/mL)	MFC (Penicillium cyclopium [21]): 510 µM (≈ 201 µg/mL); MIC (Penicillium ochrochloron [22]): 130 µM (≈ 51.3 µg/mL); MBC (Erwinia amylovora [23]): 2.5 µM (≈ 0.986 µg/mL); MIC (Aspergillus versicolor [24]): 250 µM (≈ 98.6 µg/mL); MFC (Aspergillus niger [25]): 510 µM (≈ 201 µg/mL); MFC (Aspergillus versicolor [26]): 510 µM (≈ 201 µg/mL)
O=C(/C(=C/c1cccc(O)c1)n1cncn1)c1ccccc1	380 µM (≈ 111 µg/mL)	1.7 µM (≈ 0.495 µg/mL)	1.7 µM (≈ 0.495 µg/mL)	6.9 µM (≈ 2.01 µg/mL)	190 µM (≈ 55.3 µg/mL)	1.7 µM (≈ 0.495 µg/mL)	380 µM (≈ 111 µg/mL)	520 µM (≈ 151 µg/mL)	190 µM (≈ 55.3 µg/mL)	1.7 µM (≈ 0.495 µg/mL)	260 µM (≈ 75.7 µg/mL)	520 µM (≈ 151 µg/mL)	6.9 µM (≈ 2.01 µg/mL)	520 µM (≈ 151 µg/mL)	520 µM (≈ 151 µg/mL)	1.7 µM (≈ 0.495 µg/mL)	3.4 µM (≈ 0.99 µg/mL)	1.7 µM (≈ 0.495 µg/mL)	520 µM (≈ 151 µg/mL)	260 µM (≈ 75.7 µg/mL)	MFC (Penicillium cyclopium [21]): 520 µM (≈ 151 µg/mL); MIC (Penicillium ochrochloron [22]): 260 µM (≈ 75.7 µg/mL); MBC (Erwinia amylovora [23]): 3.4 µM (≈ 0.99 µg/mL); MIC (Aspergillus versicolor [24]): 260 µM (≈ 75.7 µg/mL); MFC (Aspergillus niger [25]): 100 µM (≈ 29.1 µg/mL); MFC (Aspergillus versicolor [26]): 520 µM (≈ 151 µg/mL)

Compounds with a lower MIC (Penicillium cyclopium [1]), results first:

MIC (Penicillium cyclopium [1])	MIC (Erwinia amylovora [2])	MIC [3]	MIC (Bacillus subtilis [5])	MIC (Trichoderma viride [6])	MIC (Pseudomonas fluorescens [7])	MIC (Aspergillus fumigatus [8])	MIC (Aspergillus niger [12])	MIC (Aspergillus ochraceus [15])	MIC (Xanthomonas campestris [19])	MIC (Talaromyces funiculosus [20])	SMILES	MFC (Aspergillus ochraceus [4])	MBC (Bacillus subtilis [9])	MFC (Talaromyces funiculosus [10])	MFC (Aspergillus fumigatus [11])	MBC [13]	MBC (Xanthomonas campestris [14])	MBC (Pseudomonas fluorescens [16])	MFC (Penicillium ochrochloron [17])	MFC (Trichoderma viride [18])	further results
200 µM (≈ 74.2 µg/mL)	2.7 µM (≈ 1 µg/mL)	2.7 µM (≈ 1 µg/mL)	2.7 µM (≈ 1 µg/mL)	100 µM (≈ 37.1 µg/mL)	1.3 µM (≈ 0.482 µg/mL)	200 µM (≈ 74.2 µg/mL)	150 µM (≈ 55.6 µg/mL)	100 µM (≈ 37.1 µg/mL)	1.3 µM (≈ 0.482 µg/mL)	150 µM (≈ 55.6 µg/mL)	O=C(/C(=C/c1cc([N+](=O)[O-])ccc1O)n1cncn1)c1ccc(Cl)cc1	200 µM (≈ 74.2 µg/mL)	2.7 µM (≈ 1 µg/mL)	200 µM (≈ 74.2 µg/mL)	410 µM (≈ 152 µg/mL)	2.7 µM (≈ 1 µg/mL)	2.7 µM (≈ 1 µg/mL)	2.7 µM (≈ 1 µg/mL)	200 µM (≈ 74.2 µg/mL)	200 µM (≈ 74.2 µg/mL)	MFC (Penicillium cyclopium [21]): 410 µM (≈ 152 µg/mL); MIC (Penicillium ochrochloron [22]): 100 µM (≈ 37.1 µg/mL); MBC (Erwinia amylovora [23]): 2.7 µM (≈ 1 µg/mL); MIC (Aspergillus versicolor [24]): 100 µM (≈ 37.1 µg/mL); MFC (Aspergillus niger [25]): 200 µM (≈ 74.2 µg/mL); MFC (Aspergillus versicolor [26]): 200 µM (≈ 74.2 µg/mL)
140 µM (≈ 49.7 µg/mL)	1.3 µM (≈ 0.461 µg/mL)	1.3 µM (≈ 0.461 µg/mL)	1.3 µM (≈ 0.461 µg/mL)	70 µM (≈ 24.8 µg/mL)	0.6 µM (≈ 0.213 µg/mL)	100 µM (≈ 35.5 µg/mL)	140 µM (≈ 49.7 µg/mL)	70 µM (≈ 24.8 µg/mL)	1.3 µM (≈ 0.461 µg/mL)	140 µM (≈ 49.7 µg/mL)	O=C(/C(=C/c1ccc([N+](=O)[O-])cc1)n1cncn1)c1ccc(Cl)cc1	100 µM (≈ 35.5 µg/mL)	1.3 µM (≈ 0.461 µg/mL)	190 µM (≈ 67.4 µg/mL)	190 µM (≈ 67.4 µg/mL)	1.3 µM (≈ 0.461 µg/mL)	1.3 µM (≈ 0.461 µg/mL)	1.3 µM (≈ 0.461 µg/mL)	190 µM (≈ 67.4 µg/mL)	100 µM (≈ 35.5 µg/mL)	MFC (Penicillium cyclopium [21]): 190 µM (≈ 67.4 µg/mL); MIC (Penicillium ochrochloron [22]): 100 µM (≈ 35.5 µg/mL); MBC (Erwinia amylovora [23]): 1.3 µM (≈ 0.461 µg/mL); MIC (Aspergillus versicolor [24]): 100 µM (≈ 35.5 µg/mL); MFC (Aspergillus niger [25]): 190 µM (≈ 67.4 µg/mL); MFC (Aspergillus versicolor [26]): 190 µM (≈ 67.4 µg/mL)
40 µM (≈ 12 µg/mL)	0.4 µM (≈ 0.12 µg/mL)	0.4 µM (≈ 0.12 µg/mL)	0.8 µM (≈ 0.24 µg/mL)	30 µM (≈ 9.01 µg/mL)	3.3 µM (≈ 0.991 µg/mL)	20 µM (≈ 6.01 µg/mL)	20 µM (≈ 6.01 µg/mL)	20 µM (≈ 6.01 µg/mL)	0.8 µM (≈ 0.24 µg/mL)	40 µM (≈ 12 µg/mL)	CC(C)CC(=O)/C(=C/c1ccc([N+](=O)[O-])cc1)n1cncn1	30 µM (≈ 9.01 µg/mL)	0.8 µM (≈ 0.24 µg/mL)	60 µM (≈ 18 µg/mL)	30 µM (≈ 9.01 µg/mL)	0.8 µM (≈ 0.24 µg/mL)	0.8 µM (≈ 0.24 µg/mL)	3.3 µM (≈ 0.991 µg/mL)	60 µM (≈ 18 µg/mL)	60 µM (≈ 18 µg/mL)	MFC (Penicillium cyclopium [21]): 60 µM (≈ 18 µg/mL); MIC (Penicillium ochrochloron [22]): 30 µM (≈ 9.01 µg/mL); MBC (Erwinia amylovora [23]): 0.8 µM (≈ 0.24 µg/mL); MIC (Aspergillus versicolor [24]): 40 µM (≈ 12 µg/mL); MFC (Aspergillus niger [25]): 30 µM (≈ 9.01 µg/mL); MFC (Aspergillus versicolor [26]): 60 µM (≈ 18 µg/mL)

Source: ChEMBL document CHEMBL4725318, “New vinyl-1,2,4-triazole derivatives as antimicrobial agents: Synthesis, biological evaluation and molecular docking studies” (2020)
